These results are taken from PubChem BioAssay (NCI).

Common to all, as to assay: inhibition of tumour cell growth, NCI panel, 48 h
In assay [1] the test system is SF-295 CNS.
Assay [2] deals with SK-MEL-5 melanoma.
Assay [3] has as its system OVCAR-8 ovarian.
In assay [4] the test system is UACC-257 melanoma.
Assay [5] concerns SW-620 colon.
Assay [6] deals with OVCAR-3 ovarian.
For assay [7], the system named is OVCAR-4 ovarian.
Assay [8] has as its system LOX IMVI melanoma.
Assay [9] relates to HL-60(TB) leukemia.
In assay [10] the test system is ACHN renal.

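Step 1: Grow cells in 96-well plates. Step 2: Expose to compound for 48 hours at 5 concentrations. Step 3: Interpolate endpoints linearly; if unreached, use highest concentration. TGI: total growth inhibition.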 Some results are limits rather than exact numbers.

As to `C[N+](C)([O-])CCOc1cc2c(c3ccccc13)-c1ccccc1C2=O`, the TGI was greater than 72.1 µM in assay [1]; 28.7 µM in assay [2]; greater than 93.1 µM in assay [3]; 16.9 µM in assay [4]; 86.3 µM in [5]; greater than 52.6 µM in assay [6]. In addition, the TGI in assay [7] is 42.9 µM; in [8], greater than 47.4 µM; in assay [9] it was 35.5 µM.
Regarding `COc1cc2c(cc1OC)C(C(c1ccccc1)c1ccccc1)N(C)CC2` (centres undefined), the TGI in [1] was greater than 100 µM; in assay [2], 47.6 µM; in assay [3] it was greater than 100 µM; in [4], greater than 86.9 µM; in assay [5] it was greater than 100 µM; in [6] it was greater than 100 µM. Besides, the TGI in assay [7], in [8] and in assay [9] was greater than 100 µM each time.
For the molecule `S=c1c2cn[nH]c2nc2scc(-c3ccc(Cl)cc3)n12`, the TGI was greater than 100 µM in [2]; 41.7 µM in [3]; greater than 100 µM in assay [4]; 22.3 µM in [5]; 47.8 µM in assay [6]; greater than 100 µM in assay [7]. Also, the TGI is 23.3 µM in assay [8] and 27 µM in assay [10].
As for `O=P(O)(O)C(N=C(Nc1ccccc1)Nc1ccccc1)P(=O)(O)O`, the TGI in [1], in assay [2], in assay [3], in assay [4], in assay [6] and in assay [8] was greater than 100 µM in each case. The molecule further gave a TGI in [10] greater than 100 µM.
For the molecule `O=C1NC2c3c(I)sc(I)c3C(O)C2O1` (centres undefined), the TGI in assay [1], in assay [3], in [4], in assay [5], in assay [6] and in [7] was greater than 100 µM throughout. The TGI in [8], in assay [9] and in assay [10] was greater than 100 µM throughout.
As to `C[C@H](CCC(=O)O)[C@H]1CC[C@H]2[C@@H]3C(=O)C[C@@H]4C[C@H](O)CC[C@]4(C)[C@H]3C[C@H](O)[C@]12C`, the TGI in [3], in assay [4], in assay [5], in [7], in assay [8] and in assay [9] was greater than 100 µM in each case. Further, the TGI in [10] is greater than 100 µM.
On to `C=C1CC(C#N)(C#N)[C@H]2C3CCCC3C[C@@H]12` (some centres undefined) (tested in a mixture with another compound), for which the TGI was 39.4 µM in assay [1]; greater than 100 µM in [2]; 33 µM in assay [3]; 29.7 µM in assay [5]; 38.9 µM in assay [6]; 54.2 µM in assay [9]. In assay [10], this molecule had a TGI of 61.1 µM.
For the molecule `BrC(=C(c1ccc(OC2CCCCO2)cc1)c1ccc(OC2CCCCO2)cc1)c1ccccc1` (centres undefined), the TGI in assay [1], in assay [3], in assay [4], in assay [5], in [6] and in assay [7] was greater than 100 µM throughout. Further, the TGI in [8] and in [9] was greater than 100 µM throughout.
`CC(C)(C)[Si](C)(C)OCC1OC(n2ccc(=O)[nH]c2=O)C(O[Si](C)(C)C(C)(C)C)/C1=C/C#N` (centres undefined): the TGI is greater than 81.4 µM in assay [1]; 11.9 µM in [2]; greater than 100 µM in assay [3]; greater than 100 µM in assay [4]; greater than 100 µM in assay [5]; greater than 100 µM in assay [6]. The TGI is greater than 100 µM in assay [7], greater than 51.2 µM in assay [8] and greater than 60.5 µM in assay [10].
`CC(C)c1cc2c(c(O)c1O)[C@@]1(C(=O)O)CCCC(C)(C)[C@@H]1CC2`: the TGI was 68.5 µM in assay [1]; 47.2 µM in assay [2]; 30.1 µM in assay [3]; 33.4 µM in [4]; greater than 100 µM in assay [5]; 57.3 µM in assay [6]. Moreover, the results for the TGI in assay [7], in assay [8] and in assay [10] were greater than 100 µM, 53 µM and 26.2 µM, respectively.
For the molecule `N#CNC(=NCc1ccccc1)N(Cc1ccccc1)Cc1ccccc1`, the TGI is 29 µM in assay [1]; 26.7 µM in [2]; greater than 31.6 µM in assay [3]; greater than 100 µM in assay [5]; greater than 31.6 µM in [6]; greater than 31.6 µM in [7]. The TGI in assay [8] and in [9] was greater than 31.6 µM each time.
Turning to `COC(C)(C)C1(O)CC[C@@H](C)CC1=O` (some centres undefined), the TGI in [1], in [2], in [3], in assay [4], in [5] and in assay [6] was greater than 100 µM throughout. The TGI in [7], in assay [9] and in [10] was greater than 100 µM throughout.
Consider `CC1=Cc2cccc(C)c2C(=O)C1=O`, for which the TGI was found to be 11.1 µM in assay [1]; 10.7 µM in assay [2]; 41.7 µM in [3]; 4.72 µM in [4]; 10.3 µM in assay [5]; 6.78 µM in [6]. The TGI in [7] was determined as 10.1 µM; in assay [8], 21.5 µM; in [9], 1.37 µM.
Consider `NS(=O)(=O)c1ccc(NC(=S)/N=C/C2=C(O)c3ccccc3C2=O)cc1`, for which the TGI in [1], in assay [2], in [4], in assay [5], in [6] and in assay [7] was greater than 100 µM throughout. Also, the TGI in [8], in [9] and in assay [10] was greater than 100 µM each time.
Take `CN1CCOC1c1ccccc1O` (centres undefined): the TGI in [1], in assay [2], in [3], in assay [4], in [5] and in [6] was greater than 100 µM each time. In addition, the TGI in assay [7], in assay [8] and in [10] was greater than 100 µM each time.
Consider `Cc1ccc(C2=CC(=O)OC(C[P+](c3ccccc3)(c3ccccc3)c3ccccc3)(c3ccccc3)O2)cc1` (centres undefined), for which the TGI was 45.5 µM in assay [1]; 29.8 µM in assay [2]; 51.1 µM in [3]; 30.8 µM in assay [4]; 30.7 µM in assay [6]; 31.5 µM in assay [7]. Also, the TGI in [9] turned out to be 47.3 µM; in [10], 39.8 µM.
